Reference: US20260207654A1, “HEPARAN SULFATE AND ITS MIMETICS AS CHEMOKINE INHIBITORS” (INDIAN INSTITUTE OF SCIENCE EDUCATION AND RESEARCH, priority 2021, published 2026)

Legend:
Experiment in all cases: Chemokine glycan microarray binding assay
Conditions in all cases: maximum RFU set as 100% binding, average across 2 glycan concentrations and 3 chemokine dilutions (n=6)
CXCL8 = biological target: T1, CXCL8 (Homo sapiens, UniProt P10145)
T1 sequence (P10145 21-99): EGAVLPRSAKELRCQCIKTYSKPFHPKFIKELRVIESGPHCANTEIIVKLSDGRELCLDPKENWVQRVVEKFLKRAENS
Procedure: (§1) Microarray Studies: The compounds of the present invention were covalently immobilized on epoxy group collated glass slides. Slides were rehydrated with dH2O and incubated for 30 min in a staining dish with 50° C. prewarmed ethanolamine (0.05 M) in Tris-HCl (0.1 M, pH 9.0) to block the remaining reactive epoxy groups on the slide surface, then washed with 50° C. prewarmed dH2O. Slides were centrifuged at 200 g for 3 min, then fitted with the ProPlate Multi-Array 16-well slide module (Grace Bio-lab P37001) to divide into the subarrays (blocks). Slides were washed with PBST (0.1% Tween 20), aspirated, and blocked with 200 μL/subarray of blocking buffer (PBS pH 7.3+1% w/v ovalbumin) for 1 h at RT with gentle shaking. Next, the blocking solution was aspirated and 100 μL/block of primary chemokines diluted in PBS pH 7.3+1% w/v ovalbumin were incubated with gentle shaking for 2 hours at RT. Slides were washed 4 times with PBST, then with PBS (without Tween-20) for 2 min. Bound antibodies were detected by incubating with biotinylated secondary detections (1 ng/μL) diluted in PBS, 200 μL/block at RT for 1 h. Slides were washed 4 times with PBST, then with PBS (without Tween-20) for 2 min and biotinylated antibodies were detected with Cy3-SA ([…]). Slides were washed 4 times with PBST, then with PBS for 10 min followed by removal from the ProPlate Multi-Array slide module and immediately dipping in a staining dish with dH2O for 10 min with shaking. The slides were then centrifuged at 200 g for 3 min, and the dry slides immediately scanned. Binding was tested at three serial dilutions, then detected with the relevant biotinylated secondary antibody (1 μg/mL) followed by Cy3-strepavidin (1.5 μg/mL). Arrays were scanned and RFUs were calculated of chemokines binding to 100 μM glycans printed at four replicates. Rank binding of chemokines (each at three dilutions) to glycans printed at four replicates each was calculated and summarized in Table 1. For each binding assay per printed block, the maximum RFU was determined and set as 100% binding. Then, binding to all other glycans in the same block was ranked in comparison to the maximal binding, and average rank binding (and SEM) for each glycan across the three examined concentrations of each chemokine was calculated. This analysis allowed to compare the glycan-binding profiles of the different chemokines and dissect their binding preferences.
(§2) Table 1. Chemokine glycan microarray binding assay. Binding was tested at 3 serial dilutions, then detected with the relevant biotinylated secondary antibody (1 μg/ml) followed by Cy3-Strepavidin (1.5 μg/ml) (Table SX). Arrays were scanned, relative fluorescent units (RFU) obtained, and maximum RFU determined and set as 100% binding. Then rank binding (per printed glycan per concentration, per each chemokine dilution, per printed block) was determined. Since each glycans was printed at 2 concentration, 100% binding was set separately for each concentration. Then, binding to all the other glycans at the same concentration was ranked in comparison to the maximal binding, and the average rank binding and SEM for each glycan across the two glycan concentrations and three examined dilutions of each chemokine was calculated (n=6, 2 glycan concentrations across 3 chemokine dilutions). This analysis allowed to compare the glycan binding profiles of the different chemokines and dissect their binding preferences. The mean rank is shown as a heatmap of all the examined binding assays together (red highest, blue lowest and white 50th percentile of ranking).

CXCL12 = CXCL12 (Homo sapiens, UniProt P48061)
Chain of CXCL12 (P48061 22-93, species assumed): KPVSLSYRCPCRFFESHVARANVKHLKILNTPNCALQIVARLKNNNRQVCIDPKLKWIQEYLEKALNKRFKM
Procedure: as §1, §2

CXCL10 = biological target: T2, CXCL10 (Homo sapiens, UniProt P02778)
T2 sequence (P02778 22-98): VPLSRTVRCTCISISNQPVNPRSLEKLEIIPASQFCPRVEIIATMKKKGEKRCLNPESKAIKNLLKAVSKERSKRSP
Procedure: as §1, §2

CCL2 = CCL2 (Homo sapiens, UniProt P13500)
Chain of CCL2 (P13500 24-99, species assumed): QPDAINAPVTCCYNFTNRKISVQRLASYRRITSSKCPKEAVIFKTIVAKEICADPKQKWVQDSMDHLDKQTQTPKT
Procedure: as §1, §2

CCL21 = biological target: T3, CCL21 (Homo sapiens, UniProt O00585)
T3 sequence (O00585 24-134): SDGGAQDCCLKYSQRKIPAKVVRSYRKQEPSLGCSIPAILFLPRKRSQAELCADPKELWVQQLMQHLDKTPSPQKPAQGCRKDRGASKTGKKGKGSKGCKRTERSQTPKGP
Procedure: as §1, §2

CCL5 = biological target: T4, CCL5 (Homo sapiens, UniProt P13501)
T4 sequence (P13501 24-91): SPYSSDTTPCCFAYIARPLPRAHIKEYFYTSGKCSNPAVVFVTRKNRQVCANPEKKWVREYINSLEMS
Procedure: as §1, §2

CCL28 = biological target: T5, CCL28 (Homo sapiens, UniProt Q9NRJ3)
T5 sequence (Q9NRJ3 20-127): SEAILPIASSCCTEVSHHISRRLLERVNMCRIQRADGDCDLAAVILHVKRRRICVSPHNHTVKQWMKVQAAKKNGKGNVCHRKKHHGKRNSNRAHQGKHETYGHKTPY
Procedure: as §1, §2

CCL13 = CCL13 (Homo sapiens, UniProt Q99616)
Chain of CCL13 (Q99616 17-98, species assumed): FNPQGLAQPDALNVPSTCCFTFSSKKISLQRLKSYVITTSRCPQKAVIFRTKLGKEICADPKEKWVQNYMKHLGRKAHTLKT
Procedure: as §1, §2

CCL7 = CCL7 (Homo sapiens, UniProt P80098)
Chain of CCL7 (P80098 24-99, species assumed): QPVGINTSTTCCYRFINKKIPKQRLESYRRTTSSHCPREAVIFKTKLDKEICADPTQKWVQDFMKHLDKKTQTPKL
Procedure: as §1, §2

Compound | mean rank binding to CXCL8 (CXCL8) | mean rank binding to CXCL12 (CXCL12) | mean rank binding to CXCL10 (CXCL10) | mean rank binding to CCL2 (CCL2) | mean rank binding to CCL21 (CCL21) | mean rank binding to CCL5 (CCL5) | mean rank binding to CCL28 (CCL28) | mean rank binding to CCL13 (CCL13) | mean rank binding to CCL7 (CCL7)
NCCOCCO[C@@H]1OC(C(=O)O)[C@@H](O[C@@H]2OC(C(=O)O)[C@@H](O)C(O)C2O)C(O)C1O (stereo partly drawn) [Example 4, Ethoxy-2-aminoethoxyl-O-(α-L-idopyranosyl Uronic Acid-α(1→4))-α-L-idopyranosyl Uronic Acid] | 12% | 56% | 44% | 2% | 48% | 2% | 56% | 67% | 33%
NCCOCCO[C@@H]1O[C@@H](C(=O)O)[C@@H](O[C@@H]2O[C@@H](C(=O)O)[C@@H](O[C@@H]3O[C@@H](C(=O)O)[C@@H](OS(=O)(=O)O)[C@H](O)[C@H]3O)[C@H](O)[C@H]2O)[C@H](O)[C@H]1O [Example 8, Ethoxy-2-aminoethoxyl-O-((4-O-sulfonato)-α-L-idopyranosyl Uronic Acid-α(1→4)-L-idopyranosyl Uronic Acid-α(1→4))-α-L-idopyranoside Uronic Acid] | 13% | 45% | 23% | 0% | 60% | 10% | 54% | 72% | 12%
CC(=O)N[C@H]1[C@@H](O[C@H]2[C@H](O)[C@@H](OP(=O)(O)O)[C@H](OCCCN)O[C@H]2C(=O)O)O[C@H](COP(=O)(O)O)[C@@H](O[C@@H]2O[C@@H](C(=O)O)[C@@H](O[C@H]3O[C@H](COP(=O)(O)O)[C@@H](O)[C@H](O)[C@H]3NC(C)=O)[C@H](O)[C@H]2OP(=O)(O)O)[C@@H]1O [Example 21, 3-Aminopropyl-O-[(2-acetamido-6-O-phosphonato-2-deoxy-α-D-glucopyranosyl)-(1→4)-O-(2-O-phosphonato-α-L-idopyranosyluronate)-(1→4)-O-(2-acetamido-6-O-phosphonato-2-deoxy-α-D-glucopyranosyl)]-(1→4)-O-2-O-phosphonato-α-L-idopyranosiduronate] | 29% | 59% | 55% | 2% | 78% | 14% | 78% | 87% | 56%
NCCOCCO[C@@H]1O[C@@H](C(=O)O)[C@@H](OS(=O)(=O)O)[C@H](O)[C@H]1O [Example 2, Ethoxy-2-aminoethoxyl-O-(4-O-sulfonato)-α-L-idopyranoside Uronic Acid] | 12% | 66% | 45% | 2% | 63% | 2% | 58% | 82% | 30%
NCCOCCO[C@@H]1OC(C(=O)O)[C@@H](O[C@@H]2OC(C(=O)O)[C@@H](O[C@@H]3OC(C(=O)O)[C@@H](O[C@@H]4OC(C(=O)O)[C@@H](O)C(O)C4O)C(O)C3O)C(O)C2O)C(O)C1O (stereo partly drawn) [Example 10, Ethoxy-2-aminoethoxyl-O-(α-L-idopyranosyl Uronic Acid-α(1→4)-α-L-idopyranosyluronic acid-α(1→4)-α-L-idopyranosyluronic acid-α(1→4))-α-L-idopyranoside Uronic Acid] | 83% | 98% | 96% | 69% | 86% | 86% | 76% | 88% | 87%
NCCOCCO[C@@H]1OC(C(=O)O)[C@@H](O[C@@H]2OC(C(=O)O)[C@@H](O[C@@H]3OC(C(=O)O)[C@@H](O)C(O)C3O)C(O)C2O)C(O)C1O (stereo partly drawn) [Example 7, Ethoxy-2-aminoethoxyl-O-(α-L-idopyranosyl Uronic Acid-α(1→4)-α-L-idopyranosyl Uronic Acid-α(1→4))-α-L-idopyranoside Uronic Acid] | 63% | 92% | 78% | 36% | 83% | 30% | 80% | 86% | 75%
NCCOCCO[C@@H]1O[C@@H](C(=O)O)[C@@H](O[C@@H]2O[C@@H](C(=O)O)[C@@H](O[C@@H]3O[C@@H](C(=O)O)[C@@H](O[C@@H]4O[C@@H](C(=O)O)[C@@H](OS(=O)(=O)O)[C@H](O)[C@H]4O)[C@H](O)[C@H]3O)[C@H](O)[C@H]2O)[C@H](O)[C@H]1O [Example 11, Ethoxy-2-aminoethoxyl-O-(4-O-sulfonato)-α-L-idopyranosyl Uronic Acid-α(1→4)-α-L-Idopyranosyl Uronic Acid-α(1→4)-α-L-idopyranosyl Uronic Acid-α(1→4)-α-L-idopyranoside Uronic Acid] | 95% | 82% | 74% | 67% | 80% | 80% | 84% | 67% | 79%
3-Aminopropyl-O-[(2-amino-2-deoxy-α-D-glucopyranosyl)-(1→4)-O-(2-O-sulfonato-α-L-idopyranosyluronate)-(1→4)-O-(2-amino-2-deoxy-α-D-glucopyranosyl)]-(1→4)-O-2-O-sulfonato-α-L-idopyranosiduronate [Example 13] | 37% | 69% | 52% | 13% | 69% | 31% | 43% | 70% | 56%
